For 14 compounds, IC50 results are on record in US10519152B2, “Compounds and their use in treating cancer” (AstraZeneca AB, priority 2017, dated 2019).

For the experiment, the target named is T1, recombinant human Estrogen Receptor alpha ligand binding domain, residues 307-554 (ER alpha-LBD (GST)) (Homo sapiens, UniProt P03372).
T1 construct: made in house
T1 sequence (P03372 307-554): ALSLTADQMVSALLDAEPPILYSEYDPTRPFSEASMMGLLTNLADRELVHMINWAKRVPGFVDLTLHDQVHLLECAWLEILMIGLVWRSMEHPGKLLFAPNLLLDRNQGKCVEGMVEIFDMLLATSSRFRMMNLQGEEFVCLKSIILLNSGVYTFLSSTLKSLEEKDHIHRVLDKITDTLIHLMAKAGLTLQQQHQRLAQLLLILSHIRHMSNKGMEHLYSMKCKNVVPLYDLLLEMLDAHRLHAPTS
In words: ERα binding assay (LanthaScreen TR-FRET competition). The note with it: TR-FRET competition with Fluormone ES2 tracer, 4 hours at room temperature; single experiment or average of two or more.

Molecules are shown by their SMILES. pIC50: −log10 of the molar value.

In general, pIC50 refers to −log10 of the IC50, conventionally taken in molar units. Take `Cc1ncsc1-c1ccc(CNC(=O)[C@@H]2C[C@@H](O)CN2C(=O)[C@@H](NC(=O)CCCOCCCCCCOc2cc(F)c([C@@H]3c4[nH]c5ccccc5c4C[C@@H](C)N3CC(C)(C)F)c(F)c2)C(C)(C)C)cc1` [Example 112, (2S,4R)-1-((S)-2-(4-((6-(3,5-difluoro-4-((1R,3R)-2-(2-fluoro-2-methylpropyl)-3-methyl-2,3,4,9-tetrahydro-1H-pyrido[3,4-b]indol-1-yl)phenoxy)hexyl)oxy)butanamido)-3,3-dimethylbutanoyl)-4-hydroxy-N-(4-(4-methylthiazol-5-yl)benzyl)pyrrolidine-2-carboxamide]: the pIC50 is 9.30.
`Cc1ncsc1-c1ccc(CNC(=O)[C@@H]2C[C@@H](O)CN2C(=O)[C@@H](NC(=O)CCCCOCCCCCOc2cc(F)c([C@@H]3c4[nH]c5ccccc5c4C[C@@H](C)N3CC(C)(C)F)c(F)c2)C(C)(C)C)cc1` [Example 113, (2S,4R)-1-((S)-2-(5-((5-(3,5-Difluoro-4-((1R,3R)-2-(2-fluoro-2-methylpropyl)-3-methyl-2,3,4,9-tetrahydro-1H-pyrido[3,4-b]indol-1-yl)phenoxy)pentyl)oxy)pentanamido)-3,3-dimethylbutanoyl)-4-hydroxy-N-(4-(4-methylthiazol-5-yl)benzyl)pyrrolidine-2-carboxamide]: the pIC50 is 9.22.
As to `Cc1ncsc1-c1ccc([C@H](C)NC(=O)[C@@H]2C[C@@H](O)CN2C(=O)[C@@H](NC(=O)CCOCCCCCCCOc2cc(F)c([C@@H]3c4[nH]c5ccccc5c4C[C@@H](C)N3CC(C)(C)F)c(F)c2)C(C)(C)C)cc1` [Example 114, (2S,4R)-1-((S)-2-(3-((7-(3,5-difluoro-4-((1R,3R)-2-(2-fluoro-2-methylpropyl)-3-methyl-2,3,4,9-tetrahydro-1H-pyrido[3,4-b]indol-1-yl)phenoxy)heptyl)oxy)propanamido)-3,3-dimethylbutanoyl)-4-hydroxy-N—((S)-1-(4-(4-methylthiazol-5-yl)phenyl)ethyl)pyrrolidine-2-carboxamide], the pIC50 is 9.05.
To `Cc1ncsc1-c1ccc(CNC(=O)[C@@H]2C[C@@H](O)CN2C(=O)[C@@H](NC(=O)CCOCCCCCCCOc2cc(F)c([C@@H]3c4[nH]c5ccccc5c4C[C@@H](C)N3CC(C)(C)F)c(F)c2)C(C)(C)C)cc1` [Example 115, (2S,4R)-1-((S)-2-(3-((7-(3,5-difluoro-4-((1R,3R)-2-(2-fluoro-2-methylpropyl)-3-methyl-2,3,4,9-tetrahydro-1H-pyrido[3,4-b]indol-1-yl)phenoxy)heptyl)oxy)propanamido)-3,3-dimethylbutanoyl)-4-hydroxy-N-(4-(4-methylthiazol-5-yl)benzyl)pyrrolidine-2-carboxamide] belongs 9.15; to `Cc1ncsc1-c1ccc(CNC(=O)[C@@H]2C[C@@H](O)CN2C(=O)[C@@H](NC(=O)C(F)(F)OCCCCCCOc2cc(F)c([C@@H]3c4[nH]c5ccccc5c4C[C@@H](C)N3CC(C)(C)F)c(F)c2)C(C)(C)C)cc1` [Example 116, (2S,4R)-1-((S)-2-(2-((6-(3,5-Difluoro-4-((1R,3R)-2-(2-fluoro-2-methylpropyl)-3-methyl-2,3,4,9-tetrahydro-1H-pyrido[3,4-b]indol-1-yl)phenoxy)hexyl)oxy)-2,2-difluoroacetamido)-3,3-dimethylbutanoyl)-4-hydroxy-N-(4-(4-methylthiazol-5-yl)benzyl)pyrrolidine-2-carboxamide], 9.00; to `Cc1ncsc1-c1ccc(CNC(=O)[C@@H]2C[C@@H](O)CN2C(=O)[C@@H](NC(=O)C2(OCCCCCCOc3cc(F)c([C@@H]4c5[nH]c6ccccc6c5C[C@@H](C)N4CC(C)(C)F)c(F)c3)CC2)C(C)(C)C)cc1` [Example 118, (2S,4R)-1-((S)-2-(1-((6-(3,5-difluoro-4-((1R,3R)-2-(2-fluoro-2-methylpropyl)-3-methyl-2,3,4,9-tetrahydro-1H-pyrido[3,4-b]indol-1-yl)phenoxy)hexyl)oxy)cyclopropane-1-carboxamido)-3,3-dimethylbutanoyl)-4-hydroxy-N-(4-(4-methylthiazol-5-yl)benzyl)pyrrolidine-2-carboxamide], 9.15.
Regarding `Cc1ncsc1-c1ccc(CNC(=O)[C@@H]2C[C@@H](O)CN2C(=O)[C@@H](NC(=O)C(F)(F)OCCCOCCCOc2cc(F)c([C@@H]3c4[nH]c5ccccc5c4C[C@@H](C)N3CC(C)(C)F)c(F)c2)C(C)(C)C)cc1` [Example 119, (2S,4R)-1-((S)-2-(2-(3-(3-(3,5-Difluoro-4-((1R,3R)-2-(2-fluoro-2-methylpropyl)-3-methyl-2,3,4,9-tetrahydro-1H-pyrido[3,4-b]indol-1-yl)phenoxy)propoxy)propoxy)-2,2-difluoroacetamido)-3,3-dimethylbutanoyl)-4-hydroxy-N-(4-(4-methylthiazol-5-yl)benzyl)pyrrolidine-2-carboxamide], the pIC50 was 9.10.
For the compound `Cc1ncsc1-c1ccc([C@H](C)NC(=O)[C@@H]2C[C@@H](O)CN2C(=O)[C@@H](NC(=O)C(F)(F)OCCCOCCCOc2cc(F)c([C@@H]3c4[nH]c5ccccc5c4C[C@@H](C)N3CC(C)(C)F)c(F)c2)C(C)(C)C)cc1` [Example 120, (2S,4R)-1-((S)-2-(2-(3-(3-(3,5-Difluoro-4-((1R,3R)-2-(2-fluoro-2-methylpropyl)-3-methyl-2,3,4,9-tetrahydro-1H-pyrido[3,4-b]indol-1-yl)phenoxy)propoxy)propoxy)-2,2-difluoroacetamido)-3,3-dimethylbutanoyl)-4-hydroxy-N—((S)-1-(4-(4-methylthiazol-5-yl)phenyl)ethyl)pyrrolidine-2-carboxamide], the pIC50 was 9.05.
As for `Cc1ncsc1-c1ccc(CNC(=O)[C@@H]2C[C@@H](O)CN2C(=O)[C@@H](NC(=O)C(F)(F)OCCOCCCCOc2cc(F)c([C@@H]3c4[nH]c5ccccc5c4C[C@@H](C)N3CC(C)(C)F)c(F)c2)C(C)(C)C)cc1` [Example 121, (2S,4R)-1-((S)-2-(2-(2-(4-(3,5-Difluoro-4-((1R,3R)-2-(2-fluoro-2-methylpropyl)-3-methyl-2,3,4,9-tetrahydro-1H-pyrido[3,4-b]indol-1-yl)phenoxy)butoxy)ethoxy)-2,2-difluoroacetamido)-3,3-dimethylbutanoyl)-4-hydroxy-N-(4-(4-methylthiazol-5-yl)benzyl)pyrrolidine-2-carboxamide], the pIC50 was 9.15.
To `Cc1ncsc1-c1ccc([C@H](C)NC(=O)[C@@H]2C[C@@H](O)CN2C(=O)[C@@H](NC(=O)C(F)(F)OCCOCCCCOc2cc(F)c([C@@H]3c4[nH]c5ccccc5c4C[C@@H](C)N3CC(C)(C)F)c(F)c2)C(C)(C)C)cc1` [Example 122, (2S,4R)-1-((S)-2-(2-(2-(4-(3,5-Difluoro-4-((1R,3R)-2-(2-fluoro-2-methylpropyl)-3-methyl-2,3,4,9-tetrahydro-1H-pyrido[3,4-b]indol-1-yl)phenoxy)butoxy)ethoxy)-2,2-difluoroacetamido)-3,3-dimethylbutanoyl)-4-hydroxy-N—((S)-1-(4-(4-methylthiazol-5-yl)phenyl)ethyl)pyrrolidine-2-carboxamide] belongs 8.82; to `Cc1ncsc1-c1ccc(CNC(=O)[C@@H]2C[C@@H](O)CN2C(=O)[C@@H](NC(=O)COCC(F)(F)COCCCOc2cc(F)c([C@@H]3c4[nH]c5ccccc5c4C[C@@H](C)N3CC(C)(C)F)c(F)c2)C(C)(C)C)cc1` [Example 125, (2S,4R)-1-((S)-2-(2-(3-(3-(3,5-Difluoro-4-((1R,3R)-2-(2-fluoro-2-methylpropyl)-3-methyl-2,3,4,9-tetrahydro-1H-pyrido[3,4-b]indol-1-yl)phenoxy)propoxy)-2,2-difluoropropoxy)acetamido)-3,3-dimethylbutanoyl)-4-hydroxy-N-(4-(4-methylthiazol-5-yl)benzyl)pyrrolidine-2-carboxamide], 9.00; to `Cc1ncsc1-c1ccc(CNC(=O)[C@@H]2C[C@@H](O)CN2C(=O)[C@@H](NC(=O)COCCOCCC(F)(F)CCOc2cc(F)c([C@@H]3c4[nH]c5ccccc5c4C[C@@H](C)N3CC(C)(C)F)c(F)c2)C(C)(C)C)cc1` [Example 127, (2S,4R)-1-((S)-2-(2-(2-((5-(3,5-Difluoro-4-((R,3R)-2-(2-fluoro-2-methylpropyl)-3-methyl-2,3,4,9-tetrahydro-1H-pyrido[3,4-b]indol-1-yl)phenoxy)-3,3-difluoropentyl)oxy)ethoxy)acetamido)-3,3-dimethylbutanoyl)-4-hydroxy-N-(4-(4-methylthiazol-5-yl)benzyl)pyrrolidine-2-carboxamide], 9.30.
As for `Cc1ncsc1-c1ccc(CNC(=O)[C@@H]2C[C@@H](O)CN2C(=O)[C@@H](NC(=O)COCCOCCCCOc2cc(F)c([C@@H]3c4[nH]c5ccccc5c4C[C@@H](C)N3CC(C)(C)F)c(F)c2)C(C)(C)C)cc1` [Example 128, (2S,4R)-1-((S)-2-(2-(2-(4-(3,5-Difluoro-4-((1R,3R)-2-(2-fluoro-2-methylpropyl)-3-methyl-2,3,4,9-tetrahydro-1H-pyrido[3,4-b]indol-1-yl)phenoxy)butoxy)ethoxy)acetamido)-3,3-dimethylbutanoyl)-4-hydroxy-N-(4-(4-methylthiazol-5-yl)benzyl)pyrrolidine-2-carboxamide], the pIC50 was 9.22.
To `Cc1ncsc1-c1ccc(CNC(=O)[C@@H]2C[C@@H](O)CN2C(=O)[C@@H](NC(=O)COCCCOCCCCOc2cc(F)c([C@@H]3c4[nH]c5ccccc5c4C[C@@H](C)N3CC(C)(C)F)c(F)c2)C(C)(C)C)cc1` [Example 129, (2S,4R)-1-((S)-2-(2-(3-(4-(3,5-Difluoro-4-((1R,3R)-2-(2-fluoro-2-methylpropyl)-3-methyl-2,3,4,9-tetrahydro-1H-pyrido[3,4-b]indol-1-yl)phenoxy)butoxy)propoxy)acetamido)-3,3-dimethylbutanoyl)-4-hydroxy-N-(4-(4-methylthiazol-5-yl)benzyl)pyrrolidine-2-carboxamide] belongs 9.00.
